# Experimental data published in paper PMC7144195, “Synthesis, antitumor activity, and molecular docking study of 2-cyclopentyloxyanisole derivatives: mechanistic study of enzyme inhibition” (Journal of Enzyme Inhibition and Medicinal Chemistry, 2020).
# Read-outs that look alike come from different tables or passages of the source.
# Tests used:
# HePG2 cell line = experiment: In vitro antitumor MTT assay, HePG2; format: cell-based
# Description: (§1) The antitumor activity was performed by using the tetrazolium salt 3-(4,5-dimethyl-2-thiazolyl)-2,5-diphenyl-2H-tetrazolium bromide (MTT) assay in accordance with an established method.
# (§2) Compounds 3a–c, 4a,b, 5a,b, 6a,b, 7a–e, 8, 9a–c, 10, 11, 12a–c, 13, and 14 were screened for their in vitro antitumor activity by using the standard 3-(4,5-dimethylthiazol-2-yl)-2,5-diphenyltetrazolium bromide (MTT) assay against five human cancers: HePG2, HCT-116, MCF-7, PC3, and HeLa cell lines. […].
# [1] = system: HePG2, HCT-116, MCF-7, PC3, and HeLa cell lines; experiment: In vitro antitumor MTT assay, panel of five human cancer cell lines (text summaries); format: cell-based; details: for IC50: read-out: IC50, antitumor activity, range over the tested cancer cell lines
# Description: as §1, §2
# HeLa cell line = experiment: In vitro antitumor MTT assay, HeLa; format: cell-based
# Description: as §1, §2
# MCF-7 cell line = experiment: In vitro antitumor MTT assay, MCF-7; format: cell-based
# Description: (§3) The antitumor activity was performed by using the tetrazolium salt 3-(4,5-dimethyl-2-thiazolyl)-2,5-diphenyl-2H-tetrazolium bromide (MTT) assay in accordance with an established method[39].
# PC3 cell line = experiment: In vitro antitumor MTT assay, PC3; format: cell-based
# Description: as §3
# HCT-116 cell line = experiment: In vitro antitumor MTT assay, HCT-116; format: cell-based
# Description: as §3
# TNF-α = TNF-α inhibition assay (human-specific sandwich ELISA); format: biochemical; details: read-out: IC50 (µM) TNFα inhibition
# Description: The concentration of TNF-α was measured by human-specific sandwich enzyme-linked immunosorbent assay (ELISA) in accordance with the manufacturer’s instructions (no. 589201, Cayman Chemical, Ann Arbour, MI)[43]^,[44].
# TNF-α has been reported as a target for cancer treatment; presently, TNF antagonists are under clinical investigation in phase I and II trials as single agents for cancer therapy. […].
# COX-2 = molecular target: T1, COX-2 (Ovis aries, UniProt P79208); experiment: Colorimetric COX-2 inhibition assay (Cayman kit 560101); format: biochemical; details: means of three determinations
# T1 construct: purchased Cayman Chemical 560101
# T1 sequence (P79208 17-603): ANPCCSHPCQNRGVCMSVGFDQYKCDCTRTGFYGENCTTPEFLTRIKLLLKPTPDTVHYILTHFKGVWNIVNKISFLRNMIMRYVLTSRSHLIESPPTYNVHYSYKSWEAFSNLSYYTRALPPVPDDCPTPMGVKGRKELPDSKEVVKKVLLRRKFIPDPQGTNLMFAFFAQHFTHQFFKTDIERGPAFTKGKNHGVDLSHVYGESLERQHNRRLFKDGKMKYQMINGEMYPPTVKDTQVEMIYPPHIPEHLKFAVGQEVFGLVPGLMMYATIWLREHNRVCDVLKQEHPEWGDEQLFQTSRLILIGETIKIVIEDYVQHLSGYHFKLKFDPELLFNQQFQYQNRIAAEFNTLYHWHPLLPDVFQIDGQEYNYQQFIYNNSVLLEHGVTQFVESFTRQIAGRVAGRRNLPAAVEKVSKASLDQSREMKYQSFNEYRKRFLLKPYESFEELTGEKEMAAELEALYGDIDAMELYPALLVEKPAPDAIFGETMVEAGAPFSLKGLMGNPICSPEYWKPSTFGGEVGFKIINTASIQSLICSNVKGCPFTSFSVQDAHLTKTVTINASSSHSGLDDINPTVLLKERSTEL
# PDE4B = PDE4B (Homo sapiens, UniProt Q07343); experiment: PDE4B inhibition assay; format: biochemical; details: read-out: IC50 (µM) PDE-4B inhibition
# PDE4B, sequence (Q07343 whole entry): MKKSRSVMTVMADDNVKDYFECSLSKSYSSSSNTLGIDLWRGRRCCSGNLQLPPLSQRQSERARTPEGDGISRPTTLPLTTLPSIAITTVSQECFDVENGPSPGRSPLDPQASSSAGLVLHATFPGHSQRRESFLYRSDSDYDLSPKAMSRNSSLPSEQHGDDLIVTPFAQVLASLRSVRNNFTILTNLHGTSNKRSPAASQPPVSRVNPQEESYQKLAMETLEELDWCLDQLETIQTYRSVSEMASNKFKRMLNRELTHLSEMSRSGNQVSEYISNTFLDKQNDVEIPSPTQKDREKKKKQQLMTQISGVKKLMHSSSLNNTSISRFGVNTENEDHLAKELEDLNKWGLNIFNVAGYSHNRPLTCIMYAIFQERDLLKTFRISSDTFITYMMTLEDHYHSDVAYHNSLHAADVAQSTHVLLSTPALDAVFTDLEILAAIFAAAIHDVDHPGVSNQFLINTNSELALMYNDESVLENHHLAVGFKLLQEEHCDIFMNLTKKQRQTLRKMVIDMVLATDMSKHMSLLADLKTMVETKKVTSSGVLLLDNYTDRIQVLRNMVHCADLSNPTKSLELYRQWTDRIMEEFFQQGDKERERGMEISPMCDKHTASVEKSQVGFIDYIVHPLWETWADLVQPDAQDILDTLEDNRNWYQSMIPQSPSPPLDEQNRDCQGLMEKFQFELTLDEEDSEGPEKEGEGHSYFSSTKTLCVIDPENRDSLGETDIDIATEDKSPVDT
# [2] = Homo sapiens, HepG2, read-out: IC50 (µM) HePG2
# [3] = Homo sapiens, read-out: IC50 (µM) HeLa
# [4] = Homo sapiens, MCF7, read-out: IC50 (µM) MCF-7
# [5] = Homo sapiens, PC-3, read-out: IC50 (µM) PC3
# [6] = Homo sapiens, HCT-116, read-out: IC50 (µM) HCT-116
# [7] = Homo sapiens, HepG2; read-out: IC50 (µM) HePG2
# [8] = Homo sapiens, range over (all or some of) HePG2, HCT-116, MCF-7, PC3, HeLa
# [9] = Homo sapiens; read-out: IC50 (µM) HeLa
# [10] = Homo sapiens, MCF7; read-out: IC50 (µM) MCF-7
# [11] = Homo sapiens, PC-3; read-out: IC50 (µM) PC3
# [12] = Homo sapiens, HCT-116; read-out: IC50 (µM) HCT-116
# [13] = range over (all or some of) HePG2, HCT-116, MCF-7, PC3, HeLa
Structure (SMILES),IC50 (HePG2 cell line; [2]),antitumor activity against the tested cancer cell lines (in words) ([1]; all tested cancer cell lines),IC50 (HeLa cell line; [3]),IC50 (MCF-7 cell line; [4]),IC50 (PC3 cell line; [5]),IC50 (HCT-116 cell line; [6]),melting point,IC50 ([1]; Homo sapiens),IC50 (TNF-α),IC50 (HePG2 cell line; [7]),"IC50 [1, 8]",IC50 (HeLa cell line; [9]),IC50 (MCF-7 cell line; [10]),IC50 (PC3 cell line; [11]),IC50 (HCT-116 cell line; [12]),"IC50 [1, 13]",IC50 (COX-2),IC50 (PDE4B)
"COc1ccc(-c2nc3c4ccccc4c4ccccc4c3n2-c2ccc(F)cc2)cc1OC1CCCC1 [Compound 7d, 2-(3-(Cyclopentyloxy)-4-methoxyphenyl)-1-(4-fluorophenyl)-1H-phenanthro[9,10-d]imidazole]",> 100 µM,no antitumor activity,> 100 µM,> 100 µM,> 100 µM,> 100 µM,290 to 292 °C,,,,,,,,,,,
"Cc1ccc(-c2cc(C(F)(F)F)nn2-c2ccc(S(N)(=O)=O)cc2)cc1 [Celecoxib, celecoxib, reference compound]",25.6 ± 2.3 µM,,36.1 ± 2.8 µM,31.3 ± 2.5 µM,30.7 ± 2.7 µM,29.5 ± 2.1 µM,,25.6 to 36.1 µM,6.44 µM,,,,,,,,,
"COc1ccc(-c2nc3c4ccccc4c4ccccc4c3n2-c2ccc(Cl)cc2)cc1OC1CCCC1 [Compound 7e, 2-(3-(Cyclopentyloxy)-4-methoxyphenyl)-1-(4-chlorophenyl)-1H-phenanthro[9,10-d]imidazole]",29.9 ± 2.1 µM,,38.1 ± 2.5 µM,42.4 ± 2.2 µM,47 ± 2.7 µM,44.8 ± 2.3 µM,294 to 296 °C,29.8 to 47 µM,,,,,,,,,,
"COc1ccc(C(=S)N2CCCCC2)cc1OC1CCCC1 [Compound 9b, (3-(Cyclopentyloxy)-4-methoxyphenyl)(piperidin-1-yl)methanethione]",,,,,,,193 to 195 °C,,,24.9 ± 1.9 µM,24.9 to 39.1 µM,28.4 ± 2.3 µM,37.1 ± 2 µM,31.5 ± 2.4 µM,39.1 ± 2.2 µM,,,
"COc1ccc(C2C3=C(CC(C)(C)CC3=O)NC3=C2C(=O)CC(C)(C)C3)cc1OC1CCCC1 [Compound 8, 9-(3-(Cyclopentyloxy)-4-methoxyphenyl)-3,3,6,6-tetramethyl-3,4,6,7,9,10-hexahydroacridine-1,8(2H,5H)-dione]",,,,,,,286 to 287 °C,,,41.8 ± 3 µM,29.8 to 47 µM,43.5 ± 2.9 µM,60.5 ± 2.8 µM,55.8 ± 3.2 µM,70.5 ± 3.5 µM,41.8 to 70.5 µM,,
"COc1ccc(-c2nc3c4ccccc4c4ccccc4c3n2-c2ccc(C)cc2)cc1OC1CCCC1 [Compound 7c, 2-(3-(Cyclopentyloxy)-4-methoxyphenyl)-1-(4-methylphenyl)-1H-phenanthro[9,10-d]imidazole]",57.1 ± 3.9 µM,,53.2 ± 3.7 µM,65.3 ± 3.4 µM,68.1 ± 3.5 µM,81.2 ± 4.2 µM,291 to 294 °C,53.2 to 90.3 µM,,,,,,,,,,
"COc1ccc(-c2nc3n(c(=O)c2C#N)C(=O)CS3)cc1OC1CCCC1 [Compound 14, 7-(3-(Cyclopentyloxy)-4-methoxyphenyl)-3,5-dioxo-2,3-dihydro-5H-thiazolo[3,2-a]pyrimidine-6-carbonitrile]",,,,,,,265 to 267 °C,,,20.1 ± 1.8 µM,5.86 to 20.1 µM,12.5 ± 1.2 µM,9.62 ± 0.9 µM,15.3 ± 1.3 µM,34.9 ± 1.9 µM,,,
"COc1ccc(C(=S)Nc2ccc(F)cc2)cc1OC1CCCC1 [Compound 10, 3-(Cyclopentyloxy)-N-(4-fluorophenyl)-4-methoxybenzothioamide]",,,,,,,194 to 196 °C,,,49.9 ± 3.5 µM,47.3 to 79.1 µM,52.5 ± 3.7 µM,64.1 ± 3.1 µM,47.3 ± 2.9 µM,79.1 ± 3.8 µM,,,
"COc1ccc(C(=S)N2CCOCC2)cc1OC1CCCC1 [Compound 9a, (3-(Cyclopentyloxy)-4-methoxyphenyl)(morpholino)methanethione]",,,,,,,190 to 192 °C,,,32.9 ± 2.3 µM,29.2 to 48.1 µM,37.5 ± 2.5 µM,35.2 ± 1.9 µM,29.2 ± 2.3 µM,48.1 ± 2.4 µM,,,
"COc1ccc(-c2nc3c4ccccc4c4ccccc4c3n2-c2ccccc2)cc1OC1CCCC1 [Compound 7b, 2-(3-(Cyclopentyloxy)-4-methoxyphenyl)-1-phenyl-1H-phenanthro[9,10-d]imidazole]",,,,,,,295 to 297 °C,,13.9 µM,13.7 ± 1.2 µM,,17.2 ± 1.5 µM,11.8 ± 1.3 µM,22.9 ± 1.9 µM,19.7 ± 1.4 µM,11.8 to 22.9 µM,24 µM,5.65 µM
"COc1ccc(C(=S)N(C)C)cc1OC1CCCC1 [Compound 11, 3-(Cyclopentyloxy)-4-methoxy-N,N-dimethylbenzothioamide]",,,,,,,189 to 191 °C,,,91.2 ± 4.8 µM,88.6 to 96.8 µM,90.9 ± 4.9 µM,94.3 ± 4.7 µM,88.6 ± 5 µM,96.8 ± 5.5 µM,,,
"COc1ccc(C2NC(=O)NC3=C2C(=O)CC(C)(C)C3)cc1OC1CCCC1 (stereo not shown) [Compound 6a, 4-(3-(Cyclopentyloxy)-4-methoxyphenyl)-7,7-dimethyl-4,6,7,8-tetrahydroquinazoline-2,5(1H,3H)-dione]",,,,,,,230 to 232 °C,,,18.5 ± 1.7 µM,18.5 to 30.5 µM,19.1 ± 1.7 µM,28.6 ± 1.6 µM,27.4 ± 2.1 µM,30.5 ± 1.8 µM,,,
"COc1ccc(C=C2CN(C)CCC2=O)cc1OC1CCCC1 [Compound 4a, 3-(3-(Cyclopentyloxy)-4-methoxybenzylidene)-1-methylpiperidin-4-one]",,,,,,,253 to 255 °C,,2.01 µM,6.04 ± 0.5 µM,4.38 to 22.9 µM,7.24 ± 0.7 µM,5.13 ± 0.3 µM,9.18 ± 0.8 µM,4.38 ± 0.4 µM,4.38 to 9.18 µM,3.34 µM,5.62 µM
"COc1ccc(C2NC(=S)NC3=C2C(=O)CC(C)(C)C3)cc1OC1CCCC1 (stereo not shown) [Compound 6b, 4-(3-(Cyclopentyloxy)-4-methoxyphenyl)-7,7-dimethyl-2-thioxo-2,3,4,6,7,8-hexahydroquinazolin-5(1H)-one]",,,,,,,233 to 235 °C,,,16.1 ± 1.4 µM,10.3 to 25.4 µM,13.5 ± 1.4 µM,10.3 ± 1.1 µM,17.9 ± 1.6 µM,25.4 ± 1.7 µM,,,
"CCN1CCC(=O)C(=Cc2ccc(OC)c(OC3CCCC3)c2)C1 [Compound 4b, 3-(3-(Cyclopentyloxy)-4-methoxybenzylidene)-1-ethylpiperidin-4-one]",,,,,,,249 to 251 °C,,17.7 µM,11 ± 1.1 µM,4.38 to 22.9 µM,8.56 ± 0.9 µM,7.18 ± 0.8 µM,14.3 ± 1.2 µM,9.48 ± 0.8 µM,7.18 to 14.3 µM,1.08 µM,11.6 µM
"COc1ccc(-c2nc3c4ccccc4c4ccccc4c3[nH]2)cc1OC1CCCC1 [Compound 7a, 2-(3-(Cyclopentyloxy)-4-methoxyphenyl)-1H-phenanthro[9,10-d]imidazole]",78.2 ± 4.4 µM,,77.6 ± 4.6 µM,89.8 ± 4.3 µM,> 100 µM,90.3 ± 4.9 µM,290 to 292 °C,53.2 to 90.3 µM,,,,,,,,,,
"COc1ccc(-c2[nH]c(=S)[nH]c(=O)c2C#N)cc1OC1CCCC1 [Compound 13, 6-(3-(cyclopentyloxy)-4-methoxyphenyl)-4-oxo-2-thioxo-1,2,3,4-tetrahydropyrimidine-5-carbonitrile]",,,,,,,,,6.72 µM,8.71 ± 0.7 µM,5.86 to 20.1 µM,5.86 ± 0.6 µM,6.93 ± 0.5 µM,11.5 ± 1.1 µM,7.66 ± 0.6 µM,,1.88 µM,3.98 µM
